Measurements taken from patent US20210338719A1 (SOCIETE DES PRODUITS NESTLE S.A., priority 2017, published 2021).

Assay: Oxidation of LC-PUFAs caused by iron source
Format: physicochemical
Conditions: iron source in composition containing LC-PUFAs

SMILES | Oxidation of LC-PUFAs
O.O=S(=O)([O-])[O-].[Fe+2] [ferrous sulphate monohydrate] | no significant oxidation of LC-PUFAs
O.O.O.O.O.O.O.O=S(=O)([O-])[O-].[Fe+2] [ferrous sulphate heptahydrate] | significant oxidation of LC-PUFAs
